1 compound from publication PMC6774072, “Azologization and repurposing of a hetero-stilbene-based kinase inhibitor: towards the design of photoswitchable sirtuin inhibitors” (Beilstein Journal of Organic Chemistry, 2019) can be followed below.

Where two headings read alike, the source gives them in different places.

The IC50 is the concentration at which inhibition is half-maximal. In general, inhibition refers to the relative decrease from the control value, in per cent. Low readings indicate little suppression, high ones strong suppression.

One experiment has as its target T1, Sirt3 (Homo sapiens, UniProt Q9NTG7).
T1 construct: Sirt3_118−395; made in house
T1 sequence (Q9NTG7 118-395): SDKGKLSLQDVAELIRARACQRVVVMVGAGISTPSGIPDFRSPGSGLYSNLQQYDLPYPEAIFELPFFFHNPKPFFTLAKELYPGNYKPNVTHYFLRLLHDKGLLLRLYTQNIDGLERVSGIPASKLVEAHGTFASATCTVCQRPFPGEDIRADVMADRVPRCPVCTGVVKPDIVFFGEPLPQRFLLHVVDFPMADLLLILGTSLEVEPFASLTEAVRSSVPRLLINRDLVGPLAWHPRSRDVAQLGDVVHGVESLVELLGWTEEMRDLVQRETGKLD
Put plainly: fluorescence-based deacetylase assay with Z-Lys(acetyl)-AMC (ZMAL) substrate. The conditions noted are these: read-out: Sirt3 inhibition IC50. It is filed as biochemical. Here is the method:
(§1) The influence on deacetylase activity of three human sirtuin isoforms (Sirt1–3) was determined in a fluorescence-based assay, using Z-Lys(acetyl)-AMC (ZMAL) as a substrate. Compared to the lead structure 2a, all compounds except 2e–h show increased inhibitory activity against Sirt2 (Table 1). […] Moreover, a slight increase in selectivity for Sirt2 and Sirt3 over Sirt1 could be observed for 2c, 4a and 4b. […] Though not photoswitchable, compounds 4a and 4b were synthesized to test the influence of a rigid conformation around the C=C double bond on sirtuin inhibition. […] A recently developed fluorescence polarization (FP)-based assay enables mapping of ligand binding to this specific binding site. For 2a an interaction with the selectivity pocket was already implied in the same work. Additionally performed docking studies proposed a binding mode in which 2a mimics the nicotinamide residue of NAD^+, whereas aromatic amino acid residues of the selectivity pocket stabilize the dimethylphenol ring. As photoisomerization in stilbenes and azo dyes is accompanied by a perpendicular twist of the phenyl ring towards the former molecular plane, we assumed that this conformational change should provoke a differential binding situation at least for the dimethylphenol residue in 2a. Unfortunately, binding of 2b and c could not be localised in the vicinity of the selectivity pocket of Sirt2, so that the binding pose remains unclear.
(§2) The photoswitchable diazeno compound 11 was subjected to biological evaluation to test the effect of photoisomerization on the inhibitory activity. The enzyme assay mixture containing 11 was exposed to 5 minutes of 365 nm radiation and compared with the results of a non-irradiated measurement. […] Unfortunately, 365 nm radiation turned out to have only minor effects on the IC50 values of 11 (Table 3).
(§3) Cloning, expression and purification of recombinant proteins: Expression and purification of Sirt1_133-747, Sirt2_56−356, and Sirt3_118−395 was carried out as described previously. Identity and purity were verified by SDS-PAGE [65]. Protein concentration was determined by the Bradford assay.
(§4) Bioassay: The inhibitory effect of compounds 2a–h, 4a/b, 8a and 11 on Sirt1–3 was detected via a previously reported fluorescence based assay. The synthetic substrate Z-Lys(acetyl)-AMC (ZMAL) is deacetylated by sirtuins, followed by tryptic digestion and thereby release of […], leading to a fluorescent readout. Inhibition was determined by comparing percentage substrate conversion to a DMSO control after subtraction of the blank fluorescence signal. All compounds were tested at 100 µM, 50 µM and 10 µM, respectively. […] IC50 values were calculated with OriginPro 9.0 G using a non-linear regression to fit the dose response curve. An enzyme-free blank control and a 100% conversion control using AMC instead of ZMAL were measured as well. Inhibition measurements were performed in biological duplicates for all compounds.

In a further experiment the target is T2, Sirt1 (Homo sapiens, UniProt Q96EB6).
T2 construct: Expression and purification of Sirt1_133-747; made in house
T2 sequence (Q96EB6 133-747): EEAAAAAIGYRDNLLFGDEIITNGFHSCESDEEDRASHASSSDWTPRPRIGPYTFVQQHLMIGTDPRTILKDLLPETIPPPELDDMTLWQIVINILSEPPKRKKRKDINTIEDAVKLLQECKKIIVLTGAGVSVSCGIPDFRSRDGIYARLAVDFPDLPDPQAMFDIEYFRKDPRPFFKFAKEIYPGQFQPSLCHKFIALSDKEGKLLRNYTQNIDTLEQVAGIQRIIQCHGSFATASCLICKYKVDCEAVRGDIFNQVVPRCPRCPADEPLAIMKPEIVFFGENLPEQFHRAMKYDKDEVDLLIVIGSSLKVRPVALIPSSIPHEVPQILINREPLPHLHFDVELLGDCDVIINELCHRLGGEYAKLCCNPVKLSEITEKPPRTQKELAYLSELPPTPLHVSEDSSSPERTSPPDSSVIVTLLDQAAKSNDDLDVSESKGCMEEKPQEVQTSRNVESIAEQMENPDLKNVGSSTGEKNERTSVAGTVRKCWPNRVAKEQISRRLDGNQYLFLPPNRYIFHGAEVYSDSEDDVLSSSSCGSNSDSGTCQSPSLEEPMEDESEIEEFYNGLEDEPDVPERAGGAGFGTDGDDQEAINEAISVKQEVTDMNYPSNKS
The description is as above. It is filed as biochemical. To be noted: @ 100 µM. On the procedure:
as §1, §2, §3, §4

[1] abbreviates: photostationary state (PSS) after 5 minutes of 365 nm irradiation.
[2] abbreviates: thermal equilibrium (∆), non-irradiated.

As to `NC(=O)c1cncc(N=Nc2ccc(F)cc2)c1` [Compound 11, 5-[(4-Fluorophenyl)diazenyl]nicotinamide], the IC50 at Sirt3 (setting [1]) was 29.9 ± 2.11 µM; on Sirt3 (setting [2]) it was 27.5 ± 3.42 µM. Besides, the figures for the inhibition at 100 µM on Sirt1 (setting [1]) and against Sirt1 (setting [2]) were 19% and 35%, respectively.
